Values of other authors in US10857210B2, “Compositions and methods to promote wound healing” (Wayne State University, priority 2015, dated 2020).

What was measured:
[1] = tested on: Tet promoter; settings: relative to tetracycline

solubility in water: fully soluble in water
Compound: Cc1c2c(c(O)c3c(O)cccc13)C(=O)[C@]1(O)C(=O)C(C(N)=O)=C(O)[C@@H](N(C)C)[C@@H]1C2 [anhydrotetracycline]
concentration that activates the Tet promoter, lower than with tetracycline [1]: 2 logs
